This is an account of results in patent US20210395680A1, “COMPOSITION AND KIT FOR DIFFERENTIATION OF STEM CELLS INTO NEURAL PROGENITOR CELLS, AND METHOD USING SAME” (CHA UNIVERSITY INDUSTRY-ACADEMIC COOPERATION FOUNDATION, priority 2018, published 2021).

Each structure is given as a SMILES string.

In assay [1] the test system is H9 human embryonic stem cells (hESCs). The assay is described as follows: Differentiation of H9 hESCs into neural progenitor cells via embryoid bodies; SOX1/P75 flow cytometry. It counts as cell-based.
The test system is the same in assay [2]. The description is as above. It counts as cell-based. As for the experimental part: Colonies obtained by culturing H9 human embryonic stem cells (hESCs) (WiCell Research Institute, Inc. Madison, Wis., U.S.A.) in a culture medium were dissociated into single cells using accutase (Life Technologies).
The cells dissociated into single cells were seeded in a culture plate coated with a protein such as vitronectin (VTN) (vitronectin XF, STEMCELL Technologies), laminine (rhLaminin-521, Thermo Fisher Scientific Inc., Waltham, Mass., USA), fibronectin (Thermo Fisher Scientific Inc.), or Matrigel™ (StemCell Technologies, Inc.). An embryonic stem cell (ESC) culture medium was added to the seeded cells to perform undifferentiation culture. As the ESC culture medium, Essential 8 (E8) medium (StemCell Technologies Inc.), TeSR2 medium (StemCell Technologies Inc), StemMACS (Miltenyi Biotec, Bergisch Gladbach, Germany), etc. was used.
(§1) The obtained colonies were finely chopped and suspension-cultured under conditions of 37° C. and 5% CO2 in a defined medium 1 containing 5 […] of a PKC inhibitor and 0.5 μM of a BMP inhibitor for about 4 days to prepare embryoid bodies (EBs). The defined medium 1 included DMEM/F12 (Life Technologies), 10 μg/ml of insulin (Sigma-Aldrich), 9 μg/ml of transferrin (Sigma-Aldrich), and 14 ng/ml of sodium selenite (Sigma-Aldrich). 3-(1-(3-Imidazol-1-yl propyl)-1H-indol-3-yl)-4-anilino-1H-pyrrole-2,5-dione) (PKC-beta inhibitor) (Millipore) was used as the PKC inhibitor. DMH1 (dorsomorphin homolog 1) (Tocris Bioscience, USA) which is a compound inhibiting BMP 1 type receptor was used as the BMP inhibitor. As a negative control, dimethyl sulfoxide (DMSO) (Sigma-Aldrich) was used instead of the drug.
EBs, which are round cell masses produced by suspension culture (defined medium 1) for about 4 days, were finely chopped, and then adhered to the bottom of the culture plate, followed by adherent culture for about 5 days (DMEM-F12, 1×N2 supplement, 25 μg/ml of insulin, 20 ng/ml of bFGF, and a matrigel-coated culture plate were used). Microscopic images of EBs obtained by suspension culture for about 4 days, and cells forming rossettes obtained by adherent culture for about 5 days are shown in FIG. 1B (left: embryoid bodies, right: cells forming rosettes).
2% (v/v) paraformaldehyde (Sigma-Aldrich) was added to cells cultured for a total of 9 days (suspension culture for 4 days+adherent culture for 5 days), and allowed to react at room temperature for about 10 minutes to fix the cells. 2% (v/v) normal serum/1×PBS (Vector Laboratories, Inc., Burlingame, Calif.) containing 0.1% (v/v) TRITON™ X-100 (Sigma-Aldrich) was added to the cells, and allowed to react at room temperature for 30 minutes to block the fixation. To analyze a proportion of cells expressing SOX1 which is a neural progenitor cell (NPC) marker or P75 protein which is a neural crest stem cell (NCSC) marker, immunostaining was performed using phycoerythrin (PE)-labeled anti-P75 monoclonal antibody (1:50 dilution) (Miltenyi Biotec), and phycoerythrin (PE)-labeled anti-Sox1 monoclonal antibody (1:100 dilution) (BD Biosciences). The immunostained cells were subjected to flow cytometry using a BD FACSCalibur flow cytometer (BD Biosciences, Sparks, Md., USA).
H9-hESCs were cultured by the method of differentiating via embryoid bodies as in Example 1.1(1). However, a defined medium 2 described below was used instead of the defined medium 1 used in Example 1.1(1).
The defined medium 2 was prepared by mixing knockout DMEM (Invitrogen), 20% (v/v) knockout serum replacement (KSR, Invitrogen), 2 mM L-glutamine (invitrogen), 1% (w/v) penicillin/streptomycin (Invitrogen), and 0.1 mM β-mercaptoethanol (Invitrogen).
H9-hESCs were cultured by the method of differentiating via embryoid bodies as in Example 1(1). However, a defined medium 3 was used instead of the defined medium 1 used in Example 1(1). The defined medium 3 was prepared by mixing DMEM/F12 (Invitrogen) and N2 supplement (Invitrogen). […]
This is another data set of the same source.

In another assay the test system is CHA15-hESC. Briefly: Differentiation of CHA15-hESC into neural progenitor cells; SOX1/P75 flow cytometry. Particulars: defined medium 1 including PKC inhibitor and BMP inhibitor; total of 9 days. It is filed as cell-based, human. The method, then:
as §1
(§2) EBs, which are round cell masses produced by suspension culture (defined medium 1) for about 4 days, were finely chopped, and then adhered to the bottom of the culture plate, followed by adherent culture for about 5 days (DMEM-F12, 1×N2 supplement, 25 μg/ml of insulin, 20 ng/ml of bFGF, and a matrigel-coated culture plate were used). Microscopic images of EBs obtained by suspension culture for about 4 days, and cells forming rossettes obtained by adherent culture for about 5 days are shown in FIG. 1B (left: embryoid bodies, right: cells forming rosettes). […]
On the technique in general: Flow cytometry measures light scatter and fluorescence of single cells or particles in a stream.

Assay [3] has as its system induced pluripotent stem cell line (iPS cell #3). The assay is described as follows: Differentiation of induced pluripotent stem cell line (iPS cell #3) into neural progenitor cells; SOX1/P75 flow cytometry. Particulars: defined medium 1 including PKC inhibitor and BMP inhibitor; total of 9 days. It is filed as cell-based, human. As for the experimental part:
as §1, §2

The test system of the next assay is CHA6-hESC. The assay is described as follows: Differentiation of CHA6-hESC into neural progenitor cells; SOX1/P75 flow cytometry. It counts as cell-based, human. Particulars: defined medium 1 including PKC inhibitor and BMP inhibitor; total of 9 days. The method, then: as §1, §2
[4] abbreviates: defined medium 2 including PKC inhibitor and BMP inhibitor.
Where [5] appears, read: defined medium 3 including PKC inhibitor and BMP inhibitor.

For `O=C1NC(=O)C(c2cn(CCCn3ccnc3)c3ccccc23)=C1Nc1ccccc1` [PKC inhibitor], the “differentiation into P75-expressing neural crest stem cells” value in assay [1] (defined medium 1, only 5 μM PKC inhibitor without DMH1) is no less than 87%.
As for `CC(C)Oc1ccc(-c2cnc3c(-c4ccnc5ccccc45)cnn3c2)cc1` [DMH1, 4-[6-[4-(1-methylethoxy)phenyl]pyrazolo[1,5-a]pyrimidin-3-yl]-quinoline], the “cells expressing SOX1 (NPC marker)” value in assay [2] (defined medium 1, 5 μg/ml PKC inhibitor + 0.5 μM DMH1, suspension culture 4 days + adherent culture 5 days) is listed as “most of the cultured cells expressed SOX1”; in assay [2] (defined medium 2 including PKC inhibitor and BMP inhibitor, 4 days suspension + 5 days adherent) it was “most of the cultured cells expressed SOX1”; in assay [2] (defined medium 3 including PKC inhibitor and BMP inhibitor, 4 days suspension + 5 days adherent) it was “most of the cultured cells expressed SOX1”. For the same compound, the “number of cells expressing P75 (neural crest stem cell marker)” value in assay [2] (defined medium 1, 5 μg/ml PKC inhibitor + 0.5 μM DMH1, total of 9 days culture) is reported as “small”; in assay [2] (setting [4]), “relatively very small”; in assay [2] (setting [5]), “relatively very small”. The “differentiation into NPC” value in assay [2] (defined medium 1 including PKC inhibitor and DMH1) was “differentiation into NPC is induced”. The “differentiation into NPCs” value (in assay [2] (setting [4]); in assay [2] (setting [5]); in the assay with CHA15-hESC; in assay [3]; in the assay with CHA6-hESC) was “differentiation into NPCs is induced” throughout. Besides, the “differentiation into SOX1-expressing NPCs” value is reported as no less than 96% in assay [1] (defined medium 1, 5 μM PKC inhibitor + 0.25 μM to 5 μM DMH1) and no less than 96% in assay [1] (defined medium 2, 5 μM PKC inhibitor + 5 μM DMH1). Also, the “differentiation into P75-expressing neural crest stem cells” value in assay [1] (defined medium 2, 5 μM PKC inhibitor + 0 μM to 0.5 μM DMH1) is on record as no less than 84%.
